The results in this text go back to ChEMBL document CHEMBL2407069, “Pyrimidone-based series of glucokinase activators with alternative donor-acceptor motif” (Bioorg Med Chem Lett, 2013).

A short description of data set [1]: AUC in Wistar-Han rat at 5 mg/kg, po. It counts as ADME, organism-based. Details: dose 5 mg/kg, route oral. As to conditions: plasma.
Data set [2] in a line: Clearance in Wistar-Han rat at 1 mg/kg, iv. As to conditions: in vivo. Details: dose 1 mg/kg, route intravenous. In kind it is ADME, organism-based.
A short description of data set [3]: Volume of distribution at steady state in Wistar-Han rat at 1 mg/kg, iv. In kind it is ADME, organism-based. Details: dose 1 mg/kg, route intravenous. As to conditions: in vivo, read-out: Vdss.
Data set [4] in a line: Lipophilicity, log D of the compound by shake-flask method. In kind it is physicochemical. As to conditions: octanol/water.
A short description of data set [5]: Half life in Wistar-Han rat at 1 mg/kg, iv. In kind it is ADME, organism-based. More on the design: dose 1 mg/kg, route intravenous. As to conditions: in vivo.
A short description of data set [6]: Oral bioavailability in Wistar-Han rat at 5 mg/kg. In kind it is ADME, organism-based. As to conditions: in vivo.
A short description of data set [7]: Intrinsic clearance in rat liver microsomes. It counts as ADME, Microsome. As to conditions: read-out: CLH.
Data set [8] is described as follows: Cmax in Wistar-Han rat at 5 mg/kg, po. As to conditions: in vivo. It counts as ADME, organism-based. Details: dose 5 mg/kg, route oral.
Data set [9] in a line: Intrinsic clearance in human liver microsomes. In kind it is ADME, Microsome. As to conditions: read-out: CLH.

Each structure is given as a SMILES string.

By AUC is commonly meant concentration integrated over time. High values mean high exposure, low ones low exposure. What is called clearance is the rate of elimination divided by the concentration. A low value points to inefficient removal. What is called logD is lipophilicity at a set pH, counting ionised and neutral species. Low values mean lower lipophilicity, high ones higher lipophilicity. Broadly, the half-life is the time in which the quantity being followed falls by half. A higher half-life goes with slow loss. What is called bioavailability is the share of a dose that reaches the circulation, judged against a reference dose that is usually intravenous. The low end stands for little systemic uptake, the high end for much systemic uptake. For orientation: Cmax means the highest concentration seen after dosing.

`CC(C)Oc1cc(Oc2ccc(S(C)(=O)=O)cc2)cc(-c2nccc(=O)[nH]2)c1`: in data set [1], the AUC stood at 703 ng·h/mL. In data set [2], this molecule returned a clearance of 61 mL/min/kg. For the same molecule, the Vd in [3] came to 6.41 L/kg. The molecule further registered a pH-dependent lipophilicity (logD) in data set [4] of 2.14. Moreover, the half-life in [5] is 1.5 h. Besides, in data set [6], the bioavailability amounted to 29%. The CLint scaled was 105 mL/min/kg in data set [7] and less than 9.8 mL/min/kg in data set [9]. Besides, the maximum concentration (Cmax) in data set [8] was found to be 150 ng/mL.

`Cc1cnc(-c2cc(Oc3ccc(S(C)(=O)=O)cc3)cc(OC(C)C)c2)[nH]c1=O` gave an AUC in data set [1] of 141 ng·h/mL. This molecule also displayed a clearance in data set [2] of 13 mL/min/kg. The Vd in data set [3] came to 0.746 L/kg. This molecule displayed a logD in data set [4] of 2.68. Further, the half-life in data set [5] was 5.3 h. The same molecule showed a bioavailability in [6] of 2%. For the same molecule, the values for the CLint scaled in data set [7] and in data set [9] were 189 mL/min/kg and less than 8 mL/min/kg, respectively. The same molecule had a Cmax in [8] of 31 ng/mL.

As to `Cc1cc(=O)[nH]c(-c2cc(Oc3ccc(S(C)(=O)=O)cc3)cc(OC(C)C)c2)n1`, in data set [4], the log distribution coefficient (logD) came to 2.43. In addition, the CLint scaled in [7] was 96 mL/min/kg; in [9], less than 8 mL/min/kg.

For the molecule `CCc1cnc(-c2cc(Oc3ccc(S(C)(=O)=O)cc3)cc(OC(C)C)c2)[nH]c1=O`, the logD in data set [4] was 3.11. The figures for the CLint scaled in data set [7] and in data set [9] were 171 mL/min/kg and less than 8 mL/min/kg, respectively.

The molecule `COc1cnc(-c2cc(Oc3ccc(S(C)(=O)=O)cc3)cc(OC(C)C)c2)[nH]c1=O` returned a logD in data set [4] of 2.21. Besides, the results for the CLint scaled in [7] and in data set [9] were less than 25.4 mL/min/kg and less than 8 mL/min/kg, respectively.

`CC(C)Oc1cc(Oc2ccc(S(C)(=O)=O)cc2)cc(-c2ncc(Cl)c(=O)[nH]2)c1` yielded a logD in data set [4] of 2.04. Besides, the CLint scaled was less than 25.4 mL/min/kg in data set [7] and less than 8 mL/min/kg in [9].

Take `CNS(=O)(=O)c1ccc(Oc2cc(OC(C)C)cc(-c3nccc(=O)[nH]3)c2)cc1`: the logD in data set [4] was 2.63. Further, in data set [9], the CLint scaled is less than 8 mL/min/kg.

In turn, `CC(C)Oc1cc(Oc2cnc(C(=O)N(C)C)c(F)c2)cc(-c2nccc(=O)[nH]2)c1` came in with a logD in data set [4] of 1.54. Also, the CLint scaled in [7] worked out at 102 mL/min/kg; in data set [9], 8.3 mL/min/kg.

The molecule `CC(C)Oc1cc(Oc2cnc(C(=O)N(C)C)nc2)cc(-c2nccc(=O)[nH]2)c1` came in with a pH-dependent lipophilicity (logD) in [4] of 0.97. In addition, the results for the CLint scaled in data set [7] and in [9] were less than 25.4 mL/min/kg and less than 8 mL/min/kg, respectively.

`CC(C)Oc1cc(Oc2cnc(C(=O)N(C)C)cn2)cc(-c2nccc(=O)[nH]2)c1` yielded a logD in data set [4] of 1.34. Moreover, the CLint scaled was 47 mL/min/kg in data set [7] and less than 8 mL/min/kg in [9].

As for `CCC(CC)Oc1cc(Oc2cnc(C(=O)N(C)C)nc2)cc(-c2nccc(=O)[nH]2)c1`, the AUC in [1] was found to be 580 ng·h/mL. Besides, the clearance in [2] came to 44 mL/min/kg. Besides, in data set [3], the Vd came out at 5.79 L/kg. Besides, the logD in data set [4] is 1.91. Moreover, in [5], the half-life was 6 h. Also, the bioavailability in data set [6] was found to be 32%. Further, the CLint scaled in data set [7] came to 91 mL/min/kg; in data set [9], 22.4 mL/min/kg. The Cmax in data set [8] was 412 ng/mL.

For `CN(C)C(=O)c1ncc(Oc2cc(OC3CCCC3)cc(-c3nccc(=O)[nH]3)c2)cn1`, the logD in data set [4] stood at 1.74. In addition, the CLint scaled in data set [7] was 106 mL/min/kg; in [9], less than 8 mL/min/kg.

In turn, `C[C@@H](CO)Oc1cc(Oc2cnc(C(=O)N(C)C)nc2)cc(-c2nccc(=O)[nH]2)c1` registered a logD in [4] of -0.02. Besides, the figures for the CLint scaled in data set [7] and in [9] were 26 mL/min/kg and less than 8 mL/min/kg, respectively.

In [4], `COC[C@H](C)Oc1cc(Oc2cnc(C(=O)N(C)C)nc2)cc(-c2nccc(=O)[nH]2)c1` yielded a logD of 0.43. Also, the CLint scaled in data set [7] was 38 mL/min/kg; in data set [9], less than 8 mL/min/kg.

Turning to `Cc1cnc(-c2cc(Oc3cnc(C(=O)N(C)C)nc3)cc(OC(C)C)c2)[nH]c1=O`, the logD in [4] came out at 1.48. Further, the CLint scaled is less than 25.4 mL/min/kg in data set [7] and less than 8 mL/min/kg in [9].

On to `COC[C@H](C)Oc1cc(Oc2cnc(C(=O)N(C)C)cn2)cc(-c2nccc(=O)[nH]2)c1`, for which the logD in [4] came out at 0.81. For the same molecule, the CLint scaled in data set [7] is less than 25.4 mL/min/kg; in data set [9], less than 8 mL/min/kg.

In data set [4], `Cc1cnc(-c2cc(Oc3ccc(S(=O)(=O)N(C)C)cc3)cc(O[C@@H](C)CO)c2)[nH]c1=O` gave a pH-dependent lipophilicity (logD) of 2.26. In addition, the CLint scaled in data set [9] came out at 12 mL/min/kg.

Molecule `CNS(=O)(=O)c1ccc(Oc2cc(O[C@@H](C)CO)cc(-c3ncc(C)c(=O)[nH]3)c2)cc1` came in with a logD in data set [4] of 2.01. Moreover, the CLint scaled in [7] is less than 25.4 mL/min/kg; in [9], less than 8 mL/min/kg.

In the case of `CCS(=O)(=O)c1ccc(Oc2cc(O[C@@H](C)CO)cc(-c3nccc(=O)[nH]3)c2)cc1`, the AUC in data set [1] is 253 ng·h/mL. For the same molecule, the clearance in data set [2] turned out to be 19 mL/min/kg. The Vd in [3] worked out at 0.746 L/kg. In addition, in [4], the logD is 1.42. In data set [5], this molecule had a half-life of 1.8 h. For the same molecule, the bioavailability in [6] stood at 6%. For the same molecule, the CLint scaled in data set [7] is less than 25.4 mL/min/kg; in [9], less than 8 mL/min/kg. This molecule also had a Cmax in [8] of 74 ng/mL.

`Cc1ccc(NC(=O)c2cc(Oc3ccc(S(C)(=O)=O)cc3)cc(OC(C)C)c2)nc1` returned a logD in data set [4] of 4.05. Moreover, the CLint scaled in data set [7] worked out at 97 mL/min/kg; in data set [9], 17 mL/min/kg.

In turn, `CC(C)Oc1cc(Oc2ccc(S(C)(=O)=O)cc2)cc(-c2cccc(=O)[nH]2)c1` showed a logD in [4] of 2.82. The CLint scaled in [7] is 349 mL/min/kg; in data set [9], less than 8 mL/min/kg.

With `CC(C)Oc1cc(Oc2ccc(S(C)(=O)=O)cc2)cc(-c2cncc(=O)[nH]2)c1`, in data set [4], the logD is 2.27. The CLint scaled in [7] was 61 mL/min/kg; in data set [9] it was 11 mL/min/kg.
